Reference: ChEMBL document CHEMBL1127100, “Structure-activity relationships of a series of glycine antagonists related to 5,7-dichlorokynurenic acid and 3-(2-carboxy-6-chloroindol-3-yl)acetic acid” (Bioorg Med Chem Lett, 1993)

What follows are compounds tested against Glutamate receptor ionotropic, NMDA 1 (Rattus norvegicus, UniProt P35439) (assay: Tested for the ability to displace [3H]glycine, by greater than 50%, from NMDA receptor of rat cortical membranes at a dose of 10 uM).

| Ki | Compound |
| --- | --- |
| > 100 µM | O=C(O)Cc1cc2ccccc2nc1C(=O)O |
| 14.8 µM | O=C(O)Cc1c(C(=O)O)nc2ccccc2c1O |
| 0.65 µM | O=C(O)Cc1c(C(=O)O)nc2cc(Cl)cc(Cl)c2c1O |
| 7.04 µM | O=C(O)CCc1c(C(=O)O)nc2cc(Cl)cc(Cl)c2c1O |
| 0.98 µM | O=C(O)c1cc2c(Cl)cc(Cl)cc2[nH]1 |
| 0.34 µM | O=C(O)Cc1c(C(=O)O)[nH]c2cc(Cl)cc(Cl)c12 |

| Compound | Ki |
| --- | --- |
| O=C(O)CCc1c(C(=O)O)[nH]c2cc(Cl)cc(Cl)c12 | 0.14 µM |

What follows are compounds tested against Glutamate NMDA receptor (assay: Tested for the ability to inhibit [3H]MK-801 binding to NMDA receptor of rat cortical membranes in the presence of glutamate (1 uM)).

| IC50 | Compound |
| --- | --- |
| > 100 µM | O=C(O)Cc1cc2ccccc2nc1C(=O)O |
| 83.4 µM | O=C(O)Cc1c(C(=O)O)nc2ccccc2c1O |
| 3.54 µM | O=C(O)Cc1c(C(=O)O)nc2cc(Cl)cc(Cl)c2c1O |
| 0.86 µM | O=C(O)c1cc(O)c2c(Cl)cc(Cl)cc2n1 |
| 103 µM | O=C(O)CCc1c(C(=O)O)nc2cc(Cl)cc(Cl)c2c1O |
| 5.91 µM | O=C(O)c1cc2c(Cl)cc(Cl)cc2[nH]1 |
| 3.33 µM | O=C(O)Cc1c(C(=O)O)[nH]c2cc(Cl)cc(Cl)c12 |
